# From patent US20250120961A1, “P53 MODULATORS” (Nested Therapeutics, Inc., priority 2023, published 2025)
# Biological target: His-tagged p53-Y220C DNA binding domain (Homo sapiens, UniProt P04637, Y220C)
# Test: Biochemical p53-Y220C and DNA binding assay (HTRF)
# Details: inflection point of 10 points dose titration, 4 parameter curve fit; p53-Y220C DBD 100 nM, biotinylated dsDNA 200 nM, 27 to 29° C.; read-out: HTRF IP
# Outline: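 DBD (aa 94-312, 100 nM) mixed with compound and biotinylated consensus dsDNA (200 nM) in DPBS/20 mM NaCl/0.5% BSA, overnight at 4 °C, then 60 min at 27-29 °C; anti-His Tb/streptavidin-d2 HTRF read. Activation normalized to reference compound (500%) and DMSO (0%); 10-point curve, inflection point reported.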
row,EC50 [nM],SMILES
1,< 100,"CNC(=O)c1ccc(CO/N=C/c2sc3c(N[C@@H]4CCN(C)C[C@@H]4F)cccc3c2SC(F)(F)F)c(NC)c1 [Example 2-33, 4-(((((E)-(7-(((3S,4R)-3-fluoro-1-methylpiperidin-4-yl)amino)-3-((trifluoromethyl)thio)benzo[b]thiophen-2-yl)methylene)amino)oxy)methyl)-N-methyl-3-(methylamino)benzamide]"
2,> 1000,"CNC(=O)c1ccc(CO/N=C/c2oc3c(N[C@@H]4CCN(C)C[C@@H]4F)cccc3c2SC(F)(F)F)c(NC)c1 [Example 2-34, 4-(((((E)-(7-(((3S,4R)-3-fluoro-1-methylpiperidin-4-yl)amino)-3-((trifluoromethyl)thio)benzofuran-2-yl)methylene)amino)oxy)methyl)-N-methyl-3-(methylamino)benzamide]"
3,< 100,"F[C@H]1CNC[C@H]1Nc1cccc2c(CC(F)(F)F)c(/C=N/OC3CCOC3)sc12 (stereo partly drawn) [Example 3-1, (E)-7-(((3R,4S)-4-fluoropyrrolidin-3-yl)amino)-3-(2,2,2-trifluoroethyl)benzo[b]thiophene-2-carbaldehyde O-tetrahydrofuran-3-yl oxime]"
4,< 100,"F[C@H]1CNC[C@H]1Nc1cccc2c(CC(F)(F)F)c(/C=N/OCc3cccnc3)sc12 [Example 3-2, (E)-7-(((3R,4S)-4-fluoropyrrolidin-3-yl)amino)-3-(2,2,2-trifluoroethyl)benzo[b]thiophene-2-carbaldehyde O-pyridin-3-ylmethyl oxime]"
5,100 to 1000,"F[C@H]1CNC[C@H]1Nc1cccc2c(CC(F)(F)F)c(/C=N/OCc3ccccn3)sc12 [Example 3-3, (E)-7-(((3R,4S)-4-fluoropyrrolidin-3-yl)amino)-3-(2,2,2-trifluoroethyl)benzo[b]thiophene-2-carbaldehyde O-pyridin-2-ylmethyl oxime]"
6,100 to 1000,"Cn1cnc(CO/N=C/c2sc3c(N[C@@H]4CNC[C@@H]4F)cccc3c2CC(F)(F)F)n1 [Example 3-4, (E)-7-(((3R,4S)-4-fluoropyrrolidin-3-yl)amino)-3-(2,2,2-trifluoroethyl)benzo[b]thiophene-2-carbaldehyde O-((1-methyl-1H-1,2,4-triazol-3-yl)methyl) oxime]"
7,100 to 1000,"F[C@H]1CNC[C@H]1Nc1cccc2c(CC(F)(F)F)c(/C=N/OCc3nc4ccccc4s3)sc12 [Example 3-5, (E)-7-(((3R,4S)-4-fluoropyrrolidin-3-yl)amino)-3-(2,2,2-trifluoroethyl)benzo[b]thiophene-2-carbaldehyde O-(benzo[d]thiazol-2-ylmethyl) oxime]"
8,100 to 1000,"Cc1nnc(CO/N=C/c2sc3c(N[C@@H]4CNC[C@@H]4F)cccc3c2CC(F)(F)F)o1 [Example 3-6, (E)-7-(((3R,4S)-4-fluoropyrrolidin-3-yl)amino)-3-(2,2,2-trifluoroethyl)benzo[b]thiophene-2-carbaldehyde O-((5-methyl-1,3,4-oxadiazol-2-yl)methyl) oxime]"
9,100 to 1000,"Cc1cc(CO/N=C/c2sc3c(N[C@@H]4CNC[C@@H]4F)cccc3c2CC(F)(F)F)no1 [Example 3-7, (E)-7-(((3R,4S)-4-fluoropyrrolidin-3-yl)amino)-3-(2,2,2-trifluoroethyl)benzo[b]thiophene-2-carbaldehyde O-((5-methylisoxazol-3-yl)methyl) oxime]"
10,100 to 1000,"O=C1CC(CO/N=C/c2sc3c(N[C@@H]4CNC[C@@H]4F)cccc3c2CC(F)(F)F)CN1 (stereo partly drawn) [Example 3-8, (E)-7-(((3R,4S)-4-fluoropyrrolidin-3-yl)amino)-3-(2,2,2-trifluoroethyl)benzo[b]thiophene-2-carbaldehyde O-((5-oxopyrrolidin-3-yl)methyl) oxime]"
11,> 1000,"CS(=O)(=O)NC1CCC(=Cc2sc3c(N[C@@H]4CCNC[C@@H]4F)cccc3c2CC(F)(F)F)CC1 (stereo partly drawn) [Example 4-1, N-(4-((7-(((3S,4R)-3-fluoropiperidin-4-yl)amino)-3-(2,2,2-trifluoroethyl)benzo[b]thiophen-2-yl)methylene)cyclohexyl)methanesulfonamide]"
12,> 1000,"CC(=O)N1CCC(=Cc2sc3c(N[C@@H]4CCNC[C@@H]4F)cccc3c2CC(F)(F)F)CC1 [Example 4-2, 1-(4-((7-(((3S,4R)-3-fluoropiperidin-4-yl)amino)-3-(2,2,2-trifluoroethyl)benzo[b]thiophen-2-yl)methylene)piperidin-1-yl)ethan-1-one]"
13,> 1000,"OC(/C=C/c1sc2c(N[C@@H]3CNC[C@@H]3F)cccc2c1CC(F)(F)F)c1ccccn1 (stereo partly drawn) [Example 5-1, (E)-3-(7-(((3R,4S)-4-fluoropyrrolidin-3-yl)amino)-3-(2,2,2-trifluoroethyl)benzo[b]thiophen-2-yl)-1-(pyridin-2-yl)prop-2-en-1-ol]"
14,> 1000,"CN1CC[C@@H](Nc2cccc3c(CC(F)(F)F)c(/C=C/C(O)c4ccccn4)sc23)[C@@H](F)C1 (stereo partly drawn) [Example 5-2, (E)-3-(7-(((3S,4R)-3-fluoro-1-methylpiperidin-4-yl)amino)-3-(2,2,2-trifluoroethyl)benzo[b]thiophen-2-yl)-1-(pyridin-2-yl)prop-2-en-1-ol]"
15,100 to 1000,"OC(/C=C/c1sc2c(N[C@@H]3CNC[C@@H]3F)cccc2c1CC(F)(F)F)c1cc(Cl)n[nH]1 (stereo partly drawn) [Example 5-3, (E)-1-(3-chloro-1H-pyrazol-5-yl)-3-(7-(((3R,4S)-4-fluoropyrrolidin-3-yl)amino)-3-(2,2,2-trifluoroethyl)benzo[b]thiophen-2-yl)prop-2-en-1-ol]"
16,100 to 1000,"CN1CC[C@@H](Nc2cccc3c(CC(F)(F)F)c(/C=C/C(O)c4cccnc4)sc23)[C@@H](F)C1 (stereo partly drawn) [Example 5-4, (E)-3-(7-(((3S,4R)-3-fluoro-1-methylpiperidin-4-yl)amino)-3-(2,2,2-trifluoroethyl)benzo[b]thiophen-2-yl)-1-(pyridin-3-yl)prop-2-en-1-ol]"
17,100 to 1000,CN1CC[C@@H](Nc2cccc3c(CC(F)(F)F)c(/C=C/C(O)c4cnn(C)c4)sc23)[C@@H](F)C1 (stereo partly shown) [Example 5-5]
18,100 to 1000,"CN1CC[C@@H](Nc2cccc3c(CC(F)(F)F)c(/C=C/C(O)c4cnn5ccccc45)sc23)[C@@H](F)C1 (stereo partly drawn) [Example 5-6, (E)-3-(7-(((3S,4R)-3-fluoro-1-methylpiperidin-4-yl)amino)-3-(2,2,2-trifluoroethyl)benzo[b]thiophen-2-yl)-1-(pyrazolo[1,5-a]pyridin-3-yl)prop-2-en-1-ol]"
19,100 to 1000,"CN1CC[C@@H](Nc2cccc3c(CC(F)(F)F)c(/C=C/C(O)c4cnn(CC5CC5)c4)sc23)[C@@H](F)C1 (stereo partly drawn) [Example 5-7, (E)-1-(1-(cyclopropylmethyl)-1H-pyrazol-4-yl)-3-(7-(((3S,4R)-3-fluoro-1-methylpiperidin-4-yl)amino)-3-(2,2,2-trifluoroethyl)benzo[b]thiophen-2-yl)prop-2-en-1-ol]"
20,100 to 1000,"CN1CC[C@@H](Nc2cccc3c(CC(F)(F)F)c(/C=C/C(O)c4cn[nH]c4)sc23)[C@@H](F)C1 (stereo partly drawn) [Example 5-8, (E)-3-(7-(((3S,4R)-3-fluoro-1-methylpiperidin-4-yl)amino)-3-(2,2,2-trifluoroethyl)benzo[b]thiophen-2-yl)-1-(1H-pyrazol-4-yl)prop-2-en-1-ol]"
21,100 to 1000,"CN1CC[C@@H](Nc2cccc3c(CC(F)(F)F)c(/C=C/C(O)c4ccncc4)sc23)[C@@H](F)C1 (stereo partly drawn) [Example 5-9, (E)-3-(7-(((3S,4R)-3-fluoro-1-methylpiperidin-4-yl)amino)-3-(2,2,2-trifluoroethyl)benzo[b]thiophen-2-yl)-1-(pyridin-4-yl)prop-2-en-1-ol]"
22,100 to 1000,"O=c1cccc(C(O)/C=C/c2sc3c(N[C@@H]4CNC[C@@H]4F)cccc3c2CC(F)(F)F)[nH]1 (stereo partly drawn) [Example 5-10, 6-((E)-3-(7-(((3R,4S)-4-fluoropyrrolidin-3-yl)amino)-3-(2,2,2-trifluoroethyl)benzo[b]thiophen-2-yl)-1-hydroxyallyl)pyridin-2(1H)-one]"
23,100 to 1000,"CN1CC[C@@H](Nc2cccc3c(CC(F)(F)F)c(/C=C/CNC(=O)C4CC4)sc23)[C@@H](F)C1 [Example 6-1, N-((E)-3-(7-(((3S,4R)-3-fluoro-1-methylpiperidin-4-yl)amino)-3-(2,2,2-trifluoroethyl)benzo[b]thiophen-2-yl)allyl)cyclopropanecarboxamide]"
24,100 to 1000,"CN1CC[C@@H](Nc2cccc3c(CC(F)(F)F)c(/C=C/CNC(=O)c4cnn(C)c4)sc23)[C@@H](F)C1 [Example 6-2, N-((E)-3-(7-(((3S,4R)-3-fluoro-1-methylpiperidin-4-yl)amino)-3-(2,2,2-trifluoroethyl)benzo[b]thiophen-2-yl)allyl)-1-methyl-1H-pyrazole-4-carboxamide]"
25,100 to 1000,"CN1CC[C@@H](Nc2cccc3c(CC(F)(F)F)c(/C=C/CNS(C)(=O)=O)sc23)[C@@H](F)C1 [Example 6-3, N-((E)-3-(7-(((3S,4R)-3-fluoro-1-methylpiperidin-4-yl)amino)-3-(2,2,2-trifluoroethyl)benzo[b]thiophen-2-yl)allyl)methanesulfonamide]"
26,100 to 1000,"COC(=O)NC/C=C/c1sc2c(N[C@@H]3CCN(C)C[C@@H]3F)cccc2c1CC(F)(F)F [Example 6-4, methyl ((E)-3-(7-(((3S,4R)-3-fluoro-1-methylpiperidin-4 yl)amino)-3-(2,2,2-trifluoroethyl)benzo[b]thiophen-2-yl)allyl)carbamate]"
27,100 to 1000,"CN1CC[C@@H](Nc2cccc3c(CC(F)(F)F)c(/C=C/CNc4cccnc4)sc23)[C@@H](F)C1 [Example 7-1, N-((E)-3-(7-(((3S,4R)-3-fluoro-1-methylpiperidin-4-yl)amino)-3-(2,2,2-trifluoroethyl)benzo[b]thiophen-2-yl)allyl)pyridin-3-amine]"
28,< 100,"COc1cc(S(C)(=O)=O)ccc1NC/C=C/c1sc2c(N[C@@H]3CCN(C)C[C@@H]3F)cccc2c1CC(F)(F)F [Example 7-2, (3S,4R)-3-fluoro-N-(2-((E)-3-((2-methoxy-4-(methylsulfonyl)phenyl)amino)prop-1-en-1-yl)-3-(2,2,2-trifluoroethyl)benzo[b]thiophen-7-yl)-1-methylpiperidin-4-amine]"
